Reference: patent US6720306B2, “Tetrapartate prodrugs” (priority 1997, dated 2004)

Test system: human ovarian carcinoma (A2780)
Assay: Efficacy of PEG-leu-doxorubicin analogs against subcutaneous human ovarian carcinoma (A2780) xenograft in nude mice
Assay type: in vivo
Settings: intravenous Qd7 × 3, 30 mg/kg/dose
Method: The efficacy of PEG-leu-doxorubicin analogs against a subcutaneous human ovarian carcinoma (A2780) injected into nude mice was determined as follows.
Following at least one week of acclimation, tumors were established in nude mice by injecting 1×10^6 […] harvested A2780 ovarian carcinoma cells in a single subcutaneous site, on the left axillary flank region of each animal. The tumor injection site was observed twice weekly and measured once palpable. The tumor volume for each mouse was determined by measuring two dimensions with calipers and calculated using the formula: tumor volume=(length×width^2)/2). When tumors reached the average volume of approximately 80 mm^3, the mice were divided into their respective experimental groups, which consists of vehicle (20 m M sodium phosphate in 0.6% NaCl) controls, Leu-Doxorubicin, compound 1 of Example 1, compound 10 of Example 4, and compound 12 of Example 5). The mice were sorted to evenly distribute tumor size, grouped into 6 mice/cage, and ear punched for permanent identification. Drugs were dosed intravenously via the tail vein once per week for three weeks (Qd7×3). Mouse weight and tumor sizes were measured at the beginning of study and twice weekly through week 5.
The overall growth of tumors was calculated as the mean tumor volume at one week following the end of the treatment. A percent treatment over control (T/C) value was also calculated when the control group's median tumor size reached approximately 800-1100 mm^3 and again at one week following treatment. The T/C value in percent is a non-quantitative indication of anti-tumor effectiveness.

**Q.** What does the source list for `COc1cccc2c1C(=O)c1c(O)c3c(c(O)c1C2=O)C[C@@](O)(C(=O)CO)C[C@@H]3O[C@H]1C[C@H](NC(=O)[C@@H](N)CC(C)C)[C@H](O)[C@H](C)O1` [Leu-Dox, Leucine-doxorubicin]?
**A.** Tumor Volume (mean ± sem) Day 21 (A2780 xenograft in nude mice, established tumors ~80 mm^3, n = 6/group, day 21): 659 ± 173 mm^3; T/C (%) At Day 21 (median tumor volume treatment vs control one week after final dosage (day 21)): 19.7%; T/C (%) At 1000 mm^3 (median tumor volume treatment vs control when control median reached approximately 1000 mm^3): 26.3%
